Measurements: US10357468B2, “Medicaments for slowing Parkinson's disease” (BIAL—PORTELA & CA, S.A., priority 2014, dated 2019)

Key:
[1] = Tolerability in the Example 2 study; settings: OPC 25, 50 and 75 mg QD for 11 days
[2] = tested on: PD patients; assay: 1-year open label extension of placebo-controlled double-blind trials of opicapone with levodopa and AADC inhibitor (Examples 1A, 1B); type: in vivo, human

Cc1c(Cl)c(C)[n+]([O-])c(Cl)c1-c1noc(-c2cc(O)c(O)c([N+](=O)[O-])c2)n1 [opicapone, 5-[3-(2,5-dichloro-4,6-dimethyl-1-oxy-pyridin-3-yl)-[1,2,4]oxadiazol-5-yl]-3-nitrobenzene-1,2-diol]
tolerability profile [1]: favourable | difference in OFF time ([2]; PD patients, at least 12 months post commencement of treatment with opicapone (with levodopa and AADCi), FIG. 1): approximately −2.0 hrs | difference in ON time without troublesome dyskinesia ([2]; PD patients, at least 12 months post commencement of treatment with opicapone (with levodopa and AADCi), FIG. 2): approximately +1.5 hr | progression of PD ([2]; patients treated with opicapone from an earlier stage compared with groups naïve to opicapone, once a day at bedtime): progressed less
